SMILES strings stand for the structures. In brackets after ≈: the same amount, converted by molar mass. Bounds are passed on as bounds.

The subject of series [1] is Staphylococcus aureus. Nature of the series: Antibacterial activity against methicillin-resistant Staphylococcus aureus clinical isolate after 24 hrs by broth microdilution method. In kind it is functional. As to conditions: read-out: MIC. On the technique in general: Broth dilution looks for growth in wells or tubes with falling amounts of substance.
Series [2] deals with Staphylococcus aureus. Kind of series: Antibacterial activity against Staphylococcus aureus Smith in presence of 30% bovine serum after 24 hrs by broth microdilution method. It counts as functional.
The test system of series [3] is Enterococcus faecium. Nature of the series: Antibacterial activity against vancomycin A-resistant Enterococcus faecium clinical isolate after 24 hrs by broth microdilution method. It counts as functional. Conditions: read-out: MIC.
A short description of series [4]: Toxicity assessed as hemolysis in erythrocytes at 90 mg/L. It counts as cell-based, Erythrocyte. As to conditions: human, erythrocytes; read-out: Activity.
A further series concerns Candida albicans. Nature of the series: Antifungal activity against Candida albicans SKF-2270 after 24 hrs by broth microdilution method. It counts as functional. As to conditions: read-out: MIC.
Series [5] relates to Staphylococcus aureus. Nature of the series: Antibacterial activity against Staphylococcus aureus Smith after 24 hrs by broth microdilution method. It counts as functional. Conditions: read-out: MIC.
A short description of series [6]: Toxicity assessed as hemolysis in erythrocytes at 180 mg/L. It counts as cell-based, Erythrocyte. Conditions: human, erythrocytes; read-out: Activity.
Series [7] concerns Staphylococcus aureus. Nature of the series: Antibacterial activity against vancomycin-intermediate resistant Staphylococcus aureus clinical isolate in presence of 30% bovine serum after 24 hrs by broth microdilution method. In kind it is functional.
The test system of series [8] is Enterococcus faecalis. Nature of the series: Antibacterial activity against Enterococcus faecalis after 24 hrs by broth microdilution method. It counts as functional. As to conditions: read-out: MIC.
The next series deals with Streptococcus pyogenes. Nature of the series: Antibacterial activity against Streptococcus pyogenes C203 after 24 hrs by broth microdilution method. It counts as functional. Conditions: C203, 24 h, read-out: MIC.
Series [9] is described as follows: Toxicity assessed as hemolysis in erythrocytes at 100 mg/L. Conditions: human, read-out: Activity. In kind it is cell-based, Erythrocyte.
Series [10] can be described thus: Toxicity assessed as hemolysis in erythrocytes at 200 mg/L. In kind it is cell-based, Erythrocyte. As to conditions: human, read-out: Activity.
Series [11] relates to Enterococcus faecalis. Kind of series: Antibacterial activity against vancomycin-resistant Enterococcus faecalis in presence of 30% bovine serum after 24 hrs by broth microdilution method. It counts as functional.
Series [12] concerns Enterococcus faecium. Kind of series: Antibacterial activity against vancomycin A-resistant Enterococcus faecium clinical isolate in presence of 30% bovine serum after 24 hrs by broth microdilution method. In kind it is functional.
Series [13] relates to Enterococcus faecalis. Nature of the series: Antibacterial activity against vancomycin A-resistant Enterococcus faecalis after 24 hrs by broth microdilution method. As to conditions: read-out: MIC. In kind it is functional.
For series [14], the system named is Staphylococcus aureus. Nature of the series: Antibacterial activity against vancomycin-intermediate resistant Staphylococcus aureus clinical isolate after 24 hrs by broth microdilution method. In kind it is functional.
The test system of a further series is Escherichia coli. Kind of series: Antibacterial activity against Escherichia coli SKF-12140 after 24 hrs by broth microdilution method. In kind it is functional. As to conditions: read-out: MIC.
In series [15] the test system is Staphylococcus aureus. Kind of series: Antibacterial activity against methicillin-resistant and vancomycin-intermediate resistant Staphylococcus aureus clinical isolate after 24 hrs by broth microdilution method. It counts as functional. As to conditions: read-out: MIC.
Series [16] relates to Enterococcus faecium. Kind of series: Antibacterial activity against Enterococcus faecium after 24 hrs by broth microdilution method. It counts as functional. Conditions: read-out: MIC.
Series [17] can be described thus: Toxicity assessed as hemolysis in erythrocytes at 400 mg/L. Conditions: human, read-out: Activity. In kind it is cell-based, Erythrocyte.
The nature of series [18]: Toxicity assessed as hemolysis in erythrocytes at 600 mg/L. In kind it is cell-based, Erythrocyte. As to conditions: human, read-out: Activity.
The nature of series [19]: Toxicity assessed as hemolysis in erythrocytes at 1200 mg/L. It counts as cell-based, Erythrocyte. As to conditions: human, read-out: Activity.
Series [20] is described as follows: Toxicity assessed as hemolysis in erythrocytes at 300 mg/L. It counts as cell-based, Erythrocyte. Conditions: human, read-out: Activity.

The term MIC denotes the lowest concentration that inhibits growth of the organism. For the molecule `CCCCCCCC(=O)N[C@@H](CC(N)=O)C(=O)NC[C@@H]1C(=O)N[C@H](c2ccc(O)cc2)C(=O)N[C@H](CCCN)C(=O)N[C@H](C(C)C)C(=O)N[C@@H](c2ccc(O)cc2)C(=O)N[C@H](c2ccc(O)cc2)C(=O)N[C@@H]([C@@H](C)O)C(=O)N[C@@H](Cc2ccccc2)C(=O)N[C@H](CCCN)C(=O)N[C@@H](c2ccc(O[C@H]3O[C@H](CO)[C@@H](O)[C@H](O)[C@@H]3O[C@H]3O[C@H](CO)[C@@H](O)[C@H](O)[C@@H]3O)cc2)C(=O)N[C@H]([C@@H](C)O)C(=O)N[C@@H](c2ccc(O)cc2)C(=O)NCC(=O)N[C@@H](CC(C)C)C(=O)N[C@H](C)C(=O)N[C@@H](c2ccc(O)c(Cl)c2)C(=O)O[C@@H]1C(N)=O.Cl`, the MIC in the series with Staphylococcus aureus [1] is 0.25 µg/mL; with Staphylococcus aureus [2], 1 µg/mL; with Enterococcus faecium [3] it was < 0.06 µg/mL; in the series on Candida albicans, > 128 µg/mL; with Staphylococcus aureus [5] it was 0.125 µg/mL; with Staphylococcus aureus [7], 2 µg/mL. The MIC in the series with Enterococcus faecalis [8] is 0.125 µg/mL; in the series on Streptococcus pyogenes it was 0.06 µg/mL; in the series on Enterococcus faecalis [11], 1 µg/mL; in the series with Enterococcus faecium [12] it was 1 µg/mL; in the series with Enterococcus faecalis [13], 0.125 µg/mL; in the series with Staphylococcus aureus [14] it was 1 µg/mL. Also, the figures for the MIC in the series on Escherichia coli, in the series on Staphylococcus aureus [15] and in the series on Enterococcus faecium [16] were > 128 µg/mL, 2 µg/mL and 0.125 µg/mL, respectively. Further, in series [4], the hemolysis at 90 mg/L worked out at 0%. For the same molecule, in series [6], the hemolysis at 180 mg/L stood at 16%. The hemolysis at 100 mg/L in series [9] amounted to 0%. Moreover, the hemolysis at 200 mg/L in series [10] is 5%. Further, in series [17], the hemolysis at 400 mg/L was determined as 59%.
For the molecule `Cc1cccc(C)c1CC(=O)N[C@@H](CC(N)=O)C(=O)NC[C@@H]1C(=O)N[C@H](c2ccc(O)cc2)C(=O)N[C@H](CCCN)C(=O)N[C@H](C(C)C)C(=O)N[C@@H](c2ccc(O)cc2)C(=O)N[C@H](c2ccc(O)cc2)C(=O)N[C@@H]([C@@H](C)O)C(=O)N[C@@H](Cc2ccccc2)C(=O)N[C@H](CCCN)C(=O)N[C@@H](c2ccc(O[C@H]3O[C@H](CO)[C@@H](O)[C@H](O)[C@@H]3O[C@H]3O[C@H](CO)[C@@H](O)[C@H](O)[C@@H]3O)cc2)C(=O)N[C@H]([C@@H](C)O)C(=O)N[C@@H](c2ccc(O)cc2)C(=O)NCC(=O)N[C@@H](CC(C)C)C(=O)N[C@H](C)C(=O)N[C@@H](c2ccc(O)c(Cl)c2)C(=O)O[C@@H]1C(N)=O`, the MIC in the series with Staphylococcus aureus [1] was ≤ 0.125 µg/mL; with Staphylococcus aureus [2] it was 0.5 µg/mL; in the series on Enterococcus faecium [3], 0.25 µg/mL (≈ 0.097 µM); in the series on Candida albicans it was > 128 µg/mL; in the series on Staphylococcus aureus [5], ≤ 0.125 µg/mL; with Staphylococcus aureus [7], 2 µg/mL. Also, the MIC in the series on Enterococcus faecalis [8] is ≤ 0.125 µg/mL; with Streptococcus pyogenes it was ≤ 0.125 µg/mL; in the series with Enterococcus faecalis [11], 1 µg/mL; in the series on Enterococcus faecium [12], 4 µg/mL; with Staphylococcus aureus [14], 0.25 µg/mL (≈ 0.097 µM); in the series with Escherichia coli it was > 128 µg/mL. For the same molecule, the MIC turned out to be 1 µg/mL (≈ 0.388 µM) in the series with Staphylococcus aureus [15] and 0.5 µg/mL (≈ 0.194 µM) in the series on Enterococcus faecium [16]. Besides, the hemolysis at 600 mg/L in series [18] was 13%. Also, in series [19], the hemolysis at 1200 mg/L is 43%. For the same molecule, the hemolysis at 300 mg/L in series [20] amounted to 0%.
With `CCc1ccccc1CC(=O)N[C@@H](CC(N)=O)C(=O)N[C@@H]1C(=O)N[C@H](c2ccc(O)cc2)C(=O)N[C@H](CCCN)C(=O)N[C@H]([C@@H](C)O)C(=O)N[C@@H](c2ccc(O)cc2)C(=O)N[C@H](c2ccc(O)cc2)C(=O)N[C@@H]([C@H](C)O)C(=O)N[C@@H](Cc2ccccc2)C(=O)N[C@H](CCCN)C(=O)N[C@@H](c2ccc(O[C@H]3O[C@H](CO)[C@@H](O)[C@H](O)[C@@H]3O[C@H]3O[C@H](CO)[C@@H](O)[C@H](O)[C@@H]3O)cc2)C(=O)N[C@H]([C@@H](C)O)C(=O)N[C@@H](c2ccc(O)cc2)C(=O)NCC(=O)N[C@@H](CC(C)C)C(=O)N[C@H](C)C(=O)N[C@@H](c2ccc(O)c(Cl)c2)C(=O)O[C@@H]1C(N)=O`, in series [18], the hemolysis at 600 mg/L stood at 1%. In addition, the hemolysis at 1200 mg/L in [19] came to 76%. For the same molecule, in [20], the hemolysis at 300 mg/L was determined as 1%.
